Results: patent publication US4243678A, “Acylhydrocarbylaminoalkanoic acids, compositions and uses” (Byk Gulden Lomberg Chemische Fabrik GmbH, priority 1977, dated 1981)
Like-named read-outs stand apart in the source and are kept apart here.

Key:
[1] = Determination of toxicity (lethal action on the mouse after intraperitoneal application); assay type: in vivo; conditions: in vivo, ip
Procedure: The toxicity investigations are carried out on female NMRI mice (body weight 22 to 26 g). The animals (5 animals per dose) are given food and water ad lib. Different doses of the substances are administered intraperitoneally. The duration of observation is 14 days. The LD50, i.e. the dose at which 50% of the animals die, is determined graphically from the dose/effect curve.

[2] = Antiulcerogenic (stomach-protective) action, pylorus ligature and acetylsalicylic acid; assay type: in vivo, rat (female); conditions: in vivo, LD50 mouse i.p. / ED50 rat i.d.
Procedure: (§1) The ulcer provocation is carried out on rats which have been made to fast for 24 hours (female, 180 to 200 g) by ligature of the pylorus (under ether narcosis) and the oral application of 100 mg/10 ml/kg acetylsalicylic acid. The administration of the substances was carried out intraduodenally (2.5 ml/kg) immediately after the ligature of the pylorus. The closure of the wound was carried out by means of Michel clamps. 4 hours after this, the animals were autopsied (while inebriated with ether) by dislocation of the atlas, and the stomach was resected. The stomach, opened longitudinally, is fixed on a cork board and, using a stereomicroscope with an enlargement of 10×, the number and size (=diameter) of any ulcers present were determined. The product of the degree of severity (according to the following scale of points) and the number of ulcers was used as the individual ulcer index.
(§2) As a measure of antiulcerogenic effect the reduction in the mean ulcer index of each treated group, as compared with that of the control group (=100%), was used.

stomach ulcer = assay: as above; assay type: in vivo, rat (female); conditions: 4 h, rat, intraduodenally, read-out: ED50 antiulcerogenic action (dose which reduces the mean ulcer index by 50%)
Procedure: as §1, §2

[3] = system: glucose formation from lactate and pyruvate in isolated perfused liver; assay: Inhibition of the formation of glucose from lactate and pyruvate in the isolated perfused rat liver; design: species or system rat (male Sprague-Dawley); conditions: for Glucose formation, % change: isolated perfused liver of fasting rats; for ED50 inhibition of formation of glucose from lactate and pyruvate: from 4 concentrations, 0.02 to 1.00 mmol/liter
Procedure: For this purpose young male Sprague-Dawley rats (160 to 200 g) are used. The rats are kept in cages of up to 5 animals in a temperature-controlled room (23° C.) with a fixed day/night rhythm (12/12 hours).
Food is withheld from the animals for from 20 to 22 hours prior to the operation. They are allowed to take water ad lib. The operation and the perfusion of the liver are carried out using the technique of R. Scholz et al. [Eur. J. Biochem. 38 (1973) 64 to 72]. The perfusion liquid used is Krebs-Henseleit bicarbonate buffer (pH 7.4), which is saturated with an oxygen/carbon dioxide mixture (95/5) and contains 1.6 mmol/liter of L-lactate and 0.2 mmol/liter of pyruvate. The perfusion liquid is pumped into the liver via a cannula inserted into the portal vein. The effluent perfusion liquid is collected via a cannula inserted into the Vena cava. The liver is perfused for about 2 hours. The test compounds are infused for 16 minutes each from the 32nd to the […] after the perfusion in increasing concentrations (0.02 to 1.00 mmol/liter).
Samples of the effluent perfusion liquid are collected at one-minute intervals and analyzed for glucose, lactate and pyruvate (using standard enzymatic methods). The percentages shown in Table VIII relate to the condition occurring before and after the administration of the compounds, the changes caused solely by lactate and pyruvate being set as being equal to 100%.

pancreatic secretion = assay: Influence on pancreatic secretion of the narcotized rat; assay type: in vivo, rat (male Sprague-Dawley); conditions: 0.5 h, narcotized rat, i.d., liquid volume
From the text: (§3) Male Sprague-Dawley rats (body weight from 250 to 300 g) are narcotized with 1.2 g/kg urethane i.m. Then the abdominal cavity is opened medially, the bile duct is ligatured shortly above the place where it leads into the duodenum and also near to the hepatic duct, and both sections are catheterized towards the liver.
(§4) As in the rat all the pancreatic ducts lead out into the central section of the bile duct; it is possible in this way to discharge the pancreatic secretion separately from the distal (ligatured) section and the bile separately from the proximal section of the bile duct.
(§5) The quantities of pancreatic juice and bile juice obtained are measured at intervals of 30 minutes over a period from 2 hours before to 3 hours after the intraduodenal (V. jugularis externa) administration of the compounds to be tested (quantity of liquid administered 5 ml/kg).
(§6) The body temperature of the animals is maintained at 36° to 38° C. by means of electric blankets and radiation; the temperature is monitored rectally.
(§7) The liquid volumes of the 30-minute fractions after the administration of the substance are related in each case to the quantity of bile or pancreatic juice secreted prior to the application of the substance (=100%, mean of the last two measurements). The maximum percentage increase in the pancreatic or bile secretion is represented in dependence upon dose, and from this the ED50 is determined by interpolation.

[4] = as above; assay type: in vivo, rat (male Sprague-Dawley); conditions: in vivo, LD50 mouse i.p. / ED50 rat i.d.
From the text: as §3, §4, §5, §6, §7

liver damage by CCl4 = assay: Antihepatotoxic effect: duration of hexobarbital sleep of the rat after liver damage by CCl4; conditions: Rattus norvegicus, po; for ED25: read-out: ED25 antihepatotoxic effect (shortens hexobarbital narcosis by 25%); for ED50: read-out: ED50 antihepatotoxic effect (shortens hexobarbital narcosis by 50%)
Procedure: (§8) The compounds to be tested are administered 1 hour prior to the administration of CCl4 orally in a liquid volume of 10 ml/kg.
(§9) The antihepatotoxic effect of the compounds to be tested (sodium salts in aqueous solution) is determined by the reduction of the prolongation of sleeping period caused by the CCl4 liver cell damage in the groups treated, as compared with the prolongation of the sleeping period of the CCl4 control group (=100%). […]

[5] = as above; conditions: rat, in vivo
Procedure: as §8, §9

[6] = Table IX, read-out: TQ LD50/ED50, antiulcerogenic action
[7] = 0.2 mmole/liter in the perfusate, Table VIII
[8] = 30 min fraction, Table VII, read-out: ED50 pancreatic secretion (dose which brings about an increase in pancreatic secretion of a maximum of 50%)
[9] = Table VII, read-out: TQ [LD50/ED50], pancreatic secretion
[10] = Table IV, read-out: TQ (LD50/ED50), antiulcerogenic action
[11] = TQ LD50/ED25, antihepatotoxic effect, LD50 mouse i.p. / ED25 rat p.o., Table V
[12] = TQ LD50/ED50, antihepatotoxic effect, LD50 mouse i.p. / ED50 rat p.o., Table V
[13] = 30 minute fraction, Table X, read-out: ED50 pancreatic secretion (dose which brings about an increase in pancreatic secretion by a maximum of 50%)
[14] = Table X, read-out: TQ LD50/ED50, pancreatic secretion
[15] = TQ LD50/ED25, antihepatotoxic effect, LD50 mouse i.p. / ED25 rat p.o., Table XI

SMILES | LD50 at 336 h ([1]; mouse i.p., Table IX) | selectivity ratio [2, 6] | ED50 (stomach ulcer; Table IX) | LD50 at 336 h ([1]; mouse, Table IV) | ED50 (pancreatic secretion; [8]) | selectivity ratio [4, 9] | selectivity ratio [2, 10] | ED50 (stomach ulcer; Table IV) | ED25 (liver damage by CCl4) | ED50 (liver damage by CCl4) | selectivity ratio [5, 11] | selectivity ratio [5, 12] | ED50 (pancreatic secretion; [13]) | selectivity ratio [4, 14] | other results
CC(C)C(=O)N(CCCCC(=O)O)c1cccc2ccccc12 [compound 51] | > 200 mg/kg | ~20 | < 10 mg/kg | – | – | – | – | – | – | – | – | – | – | – | –
O=C(O)CCCN(C(=O)c1ccc(Cl)cc1)c1ccccc1-c1ccccc1 [Serial No. 31, 4-[p-chloro-N-(biphenyl-2-yl)benzamido]butyric acid] | – | – | – | 180 mg/kg | 1 mg/kg | 180 | 5.1 | 35 mg/kg | < 1 mg/kg | 3.5 mg/kg | > 180 | 51.4 | – | – | Glucose formation, % change [3, 7]: -79%; ED50 inhibition of formation of glucose from lactate and pyruvate ([3]; Table VIII): 43 mg/L
CC1(C)[C@@H](OC(=O)CCC(=O)O)CC[C@]2(C)[C@H]3C(=O)C=C4[C@@H]5C[C@@](C)(C(=O)O)CC[C@]5(C)CC[C@@]4(C)[C@]3(C)CC[C@@H]12 [compound 19] | – | – | – | 120 mg/kg | – | – | 2.4 | 50 mg/kg | – | – | – | – | – | – | –
O=C(O)CCCCCN(C(=O)c1ccc(Cl)cc1)c1ccccc1-c1ccccc1 [Serial No. 24, 6-[p-chloro-N-(biphenyl-2-yl)benzamido]caproic acid] | – | – | – | 130 mg/kg | – | – | ~3.3 | ~40 mg/kg | ~9 mg/kg | 14 mg/kg | ~14.4 | 9.3 | – | – | Glucose formation, % change [3, 7]: -99%; ED50 inhibition of formation of glucose from lactate and pyruvate ([3]; Table VIII): 23 mg/L
COc1ccc(N(CCCC(=O)O)C(=O)c2ccc(Cl)cc2)cc1-c1ccccc1 [Serial No. 35, 4-[p-chloro-N-(6-methoxybiphenyl-3-yl)benzamido]butyric acid] | – | – | – | 120 mg/kg | 1.5 mg/kg | 80 | > 12 | < 10 mg/kg | – | – | – | – | – | – | –
O=C(O)CCCCN(C(=O)c1ccccc1O)c1ccccc1-c1ccccc1 [Serial No. 32, 5-[o-hydroxy-N-(biphenyl-2-yl)benzamido]valeric acid] | – | – | – | > 200 mg/kg | – | – | > 20 | < 10 mg/kg | – | – | – | – | – | – | –
O=C(O)CCCN(C(=O)c1cccc(C(F)(F)F)c1)c1ccccc1-c1ccccc1 [Serial No. 25, 4-[m-trifluoromethyl-N-(biphenyl-2-yl)benzamido]butyric acid] | – | – | – | 110 mg/kg | 1 mg/kg | 110 | 11 | 10 mg/kg | 10 mg/kg | 30 mg/kg | 11 | 3.7 | – | – | Glucose formation, % change [3, 7]: -77%; ED50 inhibition of formation of glucose from lactate and pyruvate ([3]; Table VIII): 34 mg/L
O=C(O)CCCN(C(=O)c1ccc(Cl)cc1)c1ccc(-c2ccccc2)cc1 [Serial No. 23, 4-[p-chloro-N-(biphenyl-4-yl)benzamido]butyric acid] | – | – | – | 120 mg/kg | 1 mg/kg | 120 | ~8 | ~15 mg/kg | 15 mg/kg | 22 mg/kg | 8 | 5.5 | – | – | –
CCC(=O)N(CCCC(=O)O)C1CCCc2cc(OC)ccc21 (centres unmarked) [compound 52] | > 200 mg/kg | > 20 | < 10 mg/kg | – | – | – | – | – | – | – | – | – | < 1 mg/kg | > 200 | –
O=C(O)CCCN(C(=O)c1ccc(Cl)c(Cl)c1)c1ccc2c(c1)CCC2 [compound 53] | 180 mg/kg | > 18 | < 10 mg/kg | – | – | – | – | – | 10 mg/kg | – | – | – | < 1 mg/kg | > 180 | selectivity ratio [5, 15]: 18
CCOc1ccc(N(CCCC(=O)O)C(=O)c2ccc(Cl)cc2)c2ccccc12 [Serial No. 43, 4-{p-chloro-[N-(4-ethoxy-1-naphthyl)]benzamido}butyric acid] | 70 mg/kg | 7 | 10 mg/kg | – | – | – | – | – | – | – | – | – | 0.7 mg/kg | 100 | –
CC(CCC(=O)O)N(C(=O)c1ccc(Cl)cc1)c1cccc2ccccc12 (stereo not drawn) [Serial No. 45, 4-{p-chloro-[N-(α-naphthyl)]benzamido}valeric acid] | 180 mg/kg | > 18 | < 10 mg/kg | – | – | – | – | – | ~15 mg/kg | – | – | – | ~1 mg/kg | ~180 | selectivity ratio [5, 15]: ~12
O=C(O)CCCN(C(=O)c1ccc(Cl)cc1)c1cccc2ccccc12 [Serial No. 38, 4-{p-chloro-[N(α-naphthyl)]benzamido}butyric acid] | – | – | – | – | – | – | – | – | ~5 mg/kg | 40 mg/kg | – | – | 2.5 mg/kg | 56 | LD50 at 336 h ([1]; mouse i.p., Table X): 140 mg/kg; Glucose formation, % change ([3]; 0.2 mmol/liter in the perfusate, Table XIII): -48%; ED50 inhibition of formation of glucose from lactate and pyruvate ([3]; Table XIII): 81 mg/L; selectivity ratio [5, 15]: ~28; selectivity ratio ([5]; TQ LD50/ED50, antihepatotoxic effect, LD50 mouse i.p. / ED50 rat p.o., Table XI): 3.5
O=C(O)CCCCN(C(=O)c1ccc(Cl)cc1)c1ccc2c(c1)CCC2 [compound 54] | 160 mg/kg | ≤ 16 | ≥ 10 mg/kg | – | – | – | – | – | – | – | – | – | – | – | –
O=C(O)CCCN(C(=O)c1ccc(F)cc1)c1ccccc1-c1ccccc1 [Serial No. 26, 4-[p-fluoro-N-(biphenyl-2-yl)benzamido]butyric acid] | – | – | – | 210 mg/kg | 2.5 mg/kg | 84 | ~3.8 | ~55 mg/kg | 1.6 mg/kg | 2.8 mg/kg | 131 | 75 | – | – | Glucose formation, % change [3, 7]: -51%; ED50 inhibition of formation of glucose from lactate and pyruvate ([3]; Table VIII): 76 mg/L
